The source made the active and inactive calls. The rule behind the calls is not given here.
Experiments:
[1] = Inhibition of chymotrypsin like activity in Trypanosoma cruzi Silvio X10/7 proteasome using Suc-LLVY-Rho-110-D-Proline peptide as substrate preincubated for 10 mins followed by substrate addition and measured for 30 mins by fluorescence based microplate reader analysis
Blood [2] = experiment: T>EC99 in Balb/c mouse infected with Trypanosoma cruzi X10/7 A1 assessed as time of blood free drug concentration in mouse exceeding EC99 for antiprotozoal activity against intracellular Trypanosoma cruzi infected in Vero cells at 50 mg/kg, po and measured after 20 days by UPLC-MS/MS analysis; assay type: ADME, organism-based; conditions: in vivo, 480 h, time 20 day
Blood [3] = experiment: T>EC99 in Balb/c mouse infected with Trypanosoma cruzi X10/7 A1 assessed as time of blood free drug concentration in mouse exceeding EC99 for antiprotozoal activity against intracellular Trypanosoma cruzi infected in Vero cells at 50 mg/kg, po and measured after 1 day by UPLC-MS/MS analysis; assay type: ADME, organism-based; conditions: in vivo, 24 h
Trypanosoma cruzi [4] = experiment: Antiprotozoal activity against intracellular Trypanosoma cruzi X10/7 A1 amastigotes infected in Vero cells assessed as parasite growth inhibition incubated for 72 to 96 hrs by Hoechst 33342 staining based analysis; assay type: functional, organism-based; conditions: X10/7 A1, Vero
[5] = Cytotoxicity against African green monkey Vero E6 cells assessed as reduction in cell viability; assay type: toxicity, cell-based; conditions: African green monkey (Chlorocebus sabaeus)
Blood [6] = experiment: T>EC99 in Balb/c mouse assessed as time of blood total concentration in mouse exceeding EC99 for antiprotozoal activity against intracellular Trypanosoma cruzi infected in Vero cells at 50 mg/kg, po and measured upto 24 hrs by UPLC-MS/MS analysis; assay type: ADME, organism-based; conditions: in vivo
Trypanosoma cruzi [7] = experiment: Antitrypanosomal activity against Trypanosoma cruzi X10/7 A1 infected in Balb/c mouse assessed as parasite clearance at 100 mg/kg, po bid for 20 days by bioluminescence analysis; assay type: functional, organism-based; conditions: time 20.0 day

SMILES | pIC50 [1] | EC50 [5] | other results
CN(C(=O)c1cccc(NC(=O)c2ccc(=O)n(Cc3ccccc3)n2)c1)C1CC1 | 4.7 | – | –
CNC(=O)c1cc(NC(=O)c2ccc(=O)n(Cc3ccc(OC)cc3)n2)ccc1F | – | – | T>EC99 (Blood [2]): < 2 h; T>EC99 (Blood [3]): 5 h
COc1ccc(Cn2nc(C(=O)Nc3ccc(F)c(C(=O)N[C@H](C)CO)c3)ccc2=O)cc1F | 7.3 | – | EC50 (Trypanosoma cruzi [4]): 0.316 µM
CN(C(=O)c1ccc(=O)n(Cc2ccccc2)n1)c1cccc(C(=O)NC2CC2)c1 | < 4 | > 50.1 µM | –
O=C(Nc1ccc(F)c(C(=O)NC2CC2)c1)c1ccc(=O)n(Cc2ccc(Cl)c(F)c2)n1 | 7.6 | > 50.1 µM | EC50 (Trypanosoma cruzi [4]): 0.251 µM
COc1ccc(Cn2nc(C(=O)Nc3ccc(F)c(C(=O)NC4CC4)c3)ccc2=O)cc1F | 8.1 | – | T>EC99 (Blood [6]): 14 h
O=C(Nc1ccc(F)c(C(=O)NC2CC2)c1)c1ccc(=O)n(CC2CCCCC2)n1 | 6.4 | > 50.1 µM | –
O=C(Nc1ccc(F)c(C(=O)NC2CC2)c1)c1ccc(=O)n(Cc2ccccc2)n1 | 6.8 | > 50.1 µM | EC50 (Trypanosoma cruzi [4]): 2.51 µM
COc1ccc(Cn2nc(C(=O)Nc3ccc(F)c(C(=O)NCCN4CCOCC4)c3)ccc2=O)cc1 | 6.9 | > 50.1 µM | –
COc1ccc(Cn2nc(C(=O)Nc3ccc(F)c(C(=O)N[C@H]4C[C@H](OC)C4)c3)ccc2=O)cc1F | 8.2 | – | –
COc1cccc(Cn2nc(C(=O)Nc3ccc(F)c(C(=O)NC4CC4)c3)ccc2=O)c1 | < 4 | > 50.1 µM | –
COc1ccc(Cn2nc(C(=O)Nc3ccc(F)c(C(=O)NC4CC4)c3)ccc2=O)cc1Cl | 8.5 | > 50.1 µM | –
COc1ncc(Cn2nc(C(=O)Nc3ccc(F)c(C(=O)NC4CC4)c3)ccc2=O)cc1F | – | > 50.1 µM | EC50 (Trypanosoma cruzi [4]): 31.6 µM
O=C(Cn1ccnc1[N+](=O)[O-])NCc1ccccc1 | – | – | Activity (Trypanosoma cruzi [7]): Active
COc1ccc(Cn2nc(C(=O)Nc3ccc(F)c(C(=O)N[C@H]4C[C@H](N5CCOCC5)C4)c3)ccc2=O)cc1F | 8.1 | – | –
O=C(NC1CC1)c1ccc(F)c(NC(=O)c2ccc(=O)n(Cc3ccccc3)n2)c1 | 5.8 | > 50.1 µM | –
COc1ccc(Cn2nc(C(=O)Nc3ccc(F)c(C(=O)NC4CC4)c3)ccc2=O)cc1 | 7.5 | > 50.1 µM | –
O=C(NC1CC1)c1cccc(NC(=O)c2ccc(=O)n(Cc3ccccc3)n2)c1 | 6.2 | – | EC50 (Trypanosoma cruzi [4]): 10 µM
COc1ccc(Cn2nc(C(=O)Nc3ccc(F)c(C(=O)NC4CC4)c3)ccc2=O)cc1C#N | 8 | > 50.1 µM | –
CNC(=O)c1cc(NC(=O)c2ccc(=O)n(Cc3ccc(OC)c(F)c3)n2)ccc1F | 8.2 | – | –
O=C(Nc1cccc(C(=O)NC2CC2)c1)c1ccc(=O)n(Cc2ccccc2)c1 | 5.8 | > 50.1 µM | –
COc1ccc(Cn2nc(C(=O)Nc3ccc(F)c(C(=O)N[C@H]4C[C@@H](N5CCOCC5)C4)c3)ccc2=O)cc1F | 8.1 | – | –
O=C(Nc1ccc(F)c(-c2cn3nc(N4CCOCC4)cnc3n2)c1)N1CCCC1 | 7.3 | > 50.1 µM | –

— ChEMBL document CHEMBL5346981, “Structure-Guided Design and Synthesis of a Pyridazinone Series of Trypanosoma cruzi Proteasome Inhibitors” (J Med Chem, 2023)
